According to patent US8299074B2, “P38 MAP kinase inhibitors” (RespiVert Ltd., priority 2008, dated 2012):
Like-named read-outs stand apart in the source and are kept apart here.

Columns and labels:
BEAS2B cells = experiment: Poly I:C-induced ICAM-1 induction in BEAS2B cells; assay type: cell-based; conditions: Homo sapiens, BEAS-2B, read-out: BEAS2B (polyIC) ICAM1 IC50
Procedure: Poly I:C-Induced ICAM-1 Induction in BEAS2B Cells: Potency Poly I:C (1 ug/ml) (Invivogen Ltd., San Diego, Calif.) was transfected into BEAS2B cells (human bronchial epithelial cells, ATCC) with Oligofectamine (Invitrogen, Carlsbad, Calif.). Cells were pre-incubated with final concentrations of compound for 2 hrs. The level of ICAM1 expression on the cell surface was determined by cell-based ELISA. Briefly, at 18 hrs after poly I:C transfection, cells were fixed with 4% formaldehyde in PBS. After quenching endogenous peroxidase by adding 0.1% sodium azide and 1% hydrogen peroxide, cells were washed with wash-buffer (0.1% Tween in PBS: PBS-Tween). After blocking the wells with 5% milk in PBS-Tween for 1 hr, the cells were incubated with anti-human ICAM-1 antibody (Cell Signaling Technology, Danvers, Mass.) in 1% BSA PBS overnight at 4° C. Cells were washed with PBS-Tween and incubated with the secondary antibody (HRP-conjugated anti-rabbit IgG, Dako Ltd., Glostrup, Denmark). The ICAM-1 signal was detected by adding substrate and reading at 450 nm with a reference wavelength of 655 nm using a spectrophotometer. […] The measured OD 450-655 readings were corrected for cell number by dividing with the OD595 reading in each well.

U937 cells [1] = experiment: LPS-induced IL-8 release in U937 cells; assay type: cell-based; conditions: Homo sapiens, read-out: DU937 (LPS) IL-8 IC50
Procedure: (§1) LPS-Induced TNF Alpha/IL-8 Release in U937 Cells: Potency U937 cells, human monocytic cell line, were differentiated to macrophage-type cells by incubation with phorbol myristate acetate (PMA; 100 ng/ml) for 48 to 72 hours. Cells were pre-incubated with final concentrations of compound for 2 hrs. […] Coli: O111:B4, Sigma) for 4 hrs, and the supernatant collected for determination of TNFα and IL-8 concentration by sandwich ELISA (Duo-set, R&D systems). […] The inhibition of IL-8 production was calculated at each concentration of test compound by comparison with vehicle control.

p38 MAPK alpha (MAPK14) = target: T1, p38 MAPK alpha (MAPK14) (Homo sapiens, UniProt Q16539); experiment: Enzyme inhibition assay, p38 MAPK alpha (FRET, Z-LYTE, via MAPKAP-K2); assay type: biochemical; conditions: read-out: Enzyme p38α IC50
T1 construct: purchased Invitrogen
T1 sequence (Q16539 whole entry): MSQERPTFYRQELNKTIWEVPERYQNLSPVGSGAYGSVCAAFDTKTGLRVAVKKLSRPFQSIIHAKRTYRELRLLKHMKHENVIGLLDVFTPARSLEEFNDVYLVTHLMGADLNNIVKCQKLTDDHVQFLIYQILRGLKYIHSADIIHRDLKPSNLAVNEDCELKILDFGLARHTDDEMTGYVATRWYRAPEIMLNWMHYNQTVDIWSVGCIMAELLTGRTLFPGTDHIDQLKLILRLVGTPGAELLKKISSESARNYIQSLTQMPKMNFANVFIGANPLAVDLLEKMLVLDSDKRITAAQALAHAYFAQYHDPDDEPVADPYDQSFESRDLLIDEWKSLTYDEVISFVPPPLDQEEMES

THP-1 cells = experiment: LPS-induced TNF alpha release in THP-1 cells; assay type: cell-based; conditions: Homo sapiens, THP-1, read-out: THP-1 (LPS) TNFα IC50
Procedure: LPS-Induced TNF Alpha Release in THP-1 Cells: Potency […] Coli; O111:B4, Sigma) for 4 hr and the supernatant collected for determination of TNFα concentration by sandwich ELISA (Duo-set, R&D systems). The inhibition of TNFα production was calculated at each concentration by comparison with vehicle control.

U937 cells [2] = experiment: LPS-induced TNF alpha release in U937 cells; assay type: cell-based; conditions: Homo sapiens; read-out: DU937 (LPS) TNFα REC50
Procedure: as §1

[3] = test system: Differentiated U937 cells; experiment: MTT assay (cell viability); assay type: cell-based, human
Procedure: MTT Assay Differentiated U937 cells were pre-incubated with compound for 4 hrs in 5% FCS or 10% FCS for 24 hrs. […] After 1 hr incubation, the media were removed, 200 ul of DMSO added to each well and the plates were shaken lightly for 1 h prior to reading the absorbance at 550 nm. The percentage loss of cell viability was calculated for each well relative to vehicle (0.5% DMSO)-treatment. Consequently an apparent increase in cell viability for drug treatment relative to vehicle is tabulated as a negative percentage.

[4] = Table 2, loss of cell viability, test conducted at 10 μg/ml
[5] = Table 2, loss of cell viability at 1 μg/ml
[6] = Table 3, first MTT column, loss of cell viability at 1 μg/ml
[7] = Table 3, second MTT column, loss of cell viability at 1 μg/ml

| SMILES | IC50 (BEAS2B cells; Table 2) [µM] | IC50 (U937 cells [1]; Table 2) [nM] | IC50 (p38 MAPK alpha (MAPK14); Table 2) [nM] | IC50 (THP-1 cells; Table 2) [nM] | EC50 (U937 cells [2]) [nM] | DU937 (cell viability) MTT assay 4 h [3, 5] | DU937 (cell viability) MTT assay 24 h [3, 5] | also measured |
| --- | --- | --- | --- | --- | --- | --- | --- | --- |
| Cc1ccc(-n2nc(C(C)(C)C)cc2NC(=O)Nc2ccc(Oc3ccnc(NC(=O)CO)c3)c3ccccc23)cc1 [Example 5, N-(4-(4-(3-(3-tert-Butyl-1-p-tolyl-1H-pyrazol-5-yl)ureido)naphthalen-1-yloxy)pyridin-2-yl)-2-hydroxyacetamide] | < 0.01 | < 10 | < 5000 | < 10 | < 10 |  |  | DU937 (cell viability) MTT assay 4 h [3, 4]: +^$ (>30%); DU937 (cell viability) MTT assay 24 h [3, 4]: +^$ (>30%) |
| COCC(=O)Nc1cc(Oc2ccc(NC(=O)Nc3cc(C(C)C)nn3-c3ccc(C)cc3)c3ccccc23)ccn1 [Example 6, N-(4-(4-(3-(3-Isopropyl-1-p-tolyl-1H-pyrazol-5-yl)ureido)naphthalen-1-yloxy)pyridin-2-yl)-2-methoxyacetamide] | < 5 | < 5000 | < 10 | < 10 | < 10 | − (<=30%) | − (<=30%) |  |
| CCc1cc(NC(=O)Nc2ccc(Oc3ccnc(NC(=O)COC)c3)c3ccccc23)n(-c2ccc(C)cc2)n1 [Example 7, N-(4-(4-(3-(3-Ethyl-1-p-tolyl-1H-pyrazol-5-yl)ureido)naphthalen-1-yloxy)pyridin-2-yl)-2-methoxyacetamide] | < 5 | < 10 | < 10 | < 10 | < 10 | − (<=30%) | − (<=30%) |  |
| COCC(=O)Nc1cc(Oc2ccc(NC(=O)Nc3cc(C(C)(C)CO)nn3-c3ccc(C)cc3)c3ccccc23)ccn1 [Example 9, N-(4-(4-(3-(3-(1-Hydroxy-2-methylpropan-2-yl)-1-p-tolyl-1H-pyrazol-5-yl)ureido)naphthalen-1-yloxy)pyridin-2-yl)-2-methoxyacetamide] | < 5 | < 10 | < 10 | < 10 | < 10 | − (<=30%) | − (<=30%) |  |
| Cc1ccc(-n2nc(C(C)(C)C)cc2NC(=O)Nc2ccc(Oc3ccnc(NC(=O)CN4CCOCC4)c3)c3ccccc23)cc1 [Example 11, N-(4-(4-(3-(3-tert-Butyl-1-p-tolyl-1H-pyrazol-5-yl)ureido)naphthalen-1-yloxy)pyridin-2-yl)-2-morpholinoacetamide] | < 5 | < 10 | < 10 | < 10 | < 10 |  |  | DU937 (cell viability) MTT assay 4 h [3, 4]: −^$ (<=30%); DU937 (cell viability) MTT assay 24 h [3, 4]: +^$ (>30%) |
| Cc1ccc(-n2nc(C(C)(C)C)cc2NC(=O)Nc2ccc(Oc3ccnc(NC(=O)CN(C)C)c3)c3ccccc23)cc1 [Example 12, N-(4-(4-(3-(3-tert-Butyl-1-p-tolyl-1H-pyrazol-5-yl)ureido)naphthalen-1-yloxy)pyridin-2-yl)-(dimethylamino)acetamide] | < 5 | < 10 | < 10 | < 10 | < 10 |  |  | DU937 (cell viability) MTT assay 4 h [3, 4]: −^$ (<=30%); DU937 (cell viability) MTT assay 24 h [3, 4]: +^$ (>30%) |
| COCCNCC(=O)Nc1cc(Oc2ccc(NC(=O)Nc3cc(C(C)(C)C)nn3-c3ccc(C)cc3)c3ccccc23)ccn1 [Example 13, N-(4-(4-(3-(3-tert-Butyl-1-p-tolyl-1H-pyrazol-5-yl)ureido)naphthalen-1-yloxy)pyridin-2-yl)-2-(2-methoxyethylamino)acetamide] | < 0.01 | < 10 | < 10 | < 10 | < 10 |  |  | DU937 (cell viability) MTT assay 4 h [3, 4]: −^$ (<=30%); DU937 (cell viability) MTT assay 24 h [3, 4]: +^$ (>30%) |
| Cc1ccc(-n2nc(C(C)(C)C)cc2NC(=O)Nc2ccc(Oc3ccnc(NC(=O)CNC(N)=O)c3)c3ccccc23)cc1 [Example 14, N-(4-(4-(3-(3-tert-Butyl-1-p-tolyl-1H-pyrazol-5-yl)ureido)naphthalen-1-yloxy)pyridin-2-yl)-2-ureidoacetamide] | < 5 | < 5000 | < 10 | < 5000 | < 5000 | − (<=30%) | − (<=30%) |  |
| COCC(=O)NCC(=O)Nc1cc(Oc2ccc(NC(=O)Nc3cc(C(C)(C)C)nn3-c3ccc(C)cc3)c3ccccc23)ccn1 [Example 15, N-(4-(4-(3-(3-tert-Butyl-1-p-tolyl-1H-pyrazol-5-yl)ureido)naphthalen-1-yloxy)pyridin-2-yl)-2-(2-methoxyacetamido)acetamide] | < 0.01 | < 10 | < 10 | < 10 | < 10 | − (<=30%) | + (>30%) |  |
| COCC(=O)Nc1cc(Oc2ccc(NC(=O)Nc3cc(C(C)(C)C)nn3-c3ccc(C)cc3)c(C)c2)ccn1 [Example 24, N-(4-(4-(3-(3-tert-Butyl-1-p-tolyl-1H-pyrazol-5-yl)ureido)-3-methylphenoxy)pyridin-2-yl)-2-methoxyacetamide] |  | < 10 | < 5000 | < 10 | < 10 | − (<=30%) | + (>30%) |  |
| Cc1ccc(-n2nc(C(C)(C)C)cc2NC(=O)Nc2ccc(Oc3ccnc(NC(=O)NC4CC4)c3)c3ccccc23)cc1 [Example 33, 1-(4-((2-(3-Cyclopropylureido)pyridin-4-yl)oxy)naphthalen-1-yl)-3-(3-(tert-butyl)-1-(p-tolyl)-1H-pyrazol-5-yl)urea] |  |  |  |  | < 10 |  |  | IC50 (BEAS2B cells; Table 3): < 5 µM; IC50 (p38 MAPK alpha (MAPK14); Table 3): < 5000 nM; IC50 (THP-1 cells; Table 3): < 10 nM; DU937 (cell viability) MTT assay 4 h [3, 6]: − (<=30%); DU937 (cell viability) MTT assay 4 h [3, 7]: − (<=30%) |
| Cc1ccc(-n2nc(C(C)(C)C)cc2NC(=O)Nc2ccc(Oc3ccnc(NC(=O)NC4CCN(S(C)(=O)=O)CC4)c3)c3ccccc23)cc1 [Example 41, N-Methylsulfonyl-4-(3-(4-(4-(3-(3-tert-butyl-1-p-tolyl-1H-pyrazol-5-yl)ureido)naphthalen-1-yloxy)pyridin-2-yl)ureido)piperidine] |  |  |  |  | < 5000 |  |  | IC50 (U937 cells [1]; Table 3): < 5000 nM; IC50 (p38 MAPK alpha (MAPK14); Table 3): < 10 nM; IC50 (THP-1 cells; Table 3): < 10 nM; DU937 (cell viability) MTT assay 4 h [3, 6]: − (<=30%); DU937 (cell viability) MTT assay 4 h [3, 7]: + (>30%) |
| Cc1ccc(-n2nc(C(C)(C)C)cc2NC(=O)Nc2ccc(Oc3ccnc(NC(=O)NCC(=O)N4CCOCC4)c3)c3ccccc23)cc1 [Example 58, 2-(3-(4-(4-(3-(3-tert-Butyl-1-p-tolyl-1H-pyrazol-5-yl)ureido)naphthalen-1-yloxy)pyridin-2-yl)ureido)acetyl morpholine] |  |  |  |  |  |  |  | IC50 (BEAS2B cells; Table 3): < 0.01 µM; IC50 (U937 cells [1]; Table 3): < 10 nM; IC50 (p38 MAPK alpha (MAPK14); Table 3): < 10 nM; IC50 (THP-1 cells; Table 3): < 10 nM; DU937 (cell viability) MTT assay 4 h [3, 6]: − (<=30%); DU937 (cell viability) MTT assay 4 h [3, 7]: − (<=30%) |
| Cc1ccc(-n2nc(C(C)(C)C)cc2NC(=O)Nc2ccc(Oc3ccnc(NC(=O)NC4CC4)n3)c3ccccc23)cc1 [Example 69, 1-Cyclopropyl-3-(4-(4-(3-(3-tert-butyl-1-p-tolyl-1H-pyrazol-5-yl)ureido)naphthalen-1-yloxy)pyrimidin-2-yl)urea] |  |  |  |  | < 10 |  |  | IC50 (U937 cells [1]; Table 1): < 10 nM; IC50 (p38 MAPK alpha (MAPK14); Table 1): < 10 nM; IC50 (THP-1 cells; Table 1): < 5000 nM; DU937 (cell viability) MTT assay 4 h ([3]; Table 1, MTT, loss of cell viability at 1 μg/ml): − (<=30%); DU937 (cell viability) MTT assay 4 h ([3]; Table 1, first MTT column, loss of cell viability at 1 μg/ml): − (<=30%) |
